The source of these data is BindingDB's records for patent US20240148821 (Chugai Seiyaku Kabushiki Kaisha, 2024).

Numbered stars: 1 amine (or outer) side, 2 acyl side, 3 side chain; on linkers, the order of the positions; unused ones are H or OH. Bridge positions count the residues as written; N and C are the ends. Square brackets hold non-standard residues; d marks the D form. Peptide text beside a SMILES is read from it. * marks the point of attachment. ξ: configuration not given here. hPhe(3,5-F2-4-CF3) = N[C@@H](CCc1cc(F)c(C(F)(F)F)c(F)c1)C(=O)O; hPhe(3-Cl-4-CF3) = N[C@@H](CCc1ccc(C(F)(F)F)c(Cl)c1)C(=O)O; hPhe(3-F,4-CF3) = N[C@@H](CCc1ccc(C(F)(F)F)c(F)c1)C(=O)O; NMeGly(COCH2cHex) = CN[C@H](C(=O)O)C(=O)CC1CCCCC1; Piperazinyl(4-(3-oxetanyl)) = C1OCC1N1CCN(*)CC1; X55 = Cn1ccc2ccc(CC[C@H](N[*:1])C(=O)[*:2])cc21; X101 = CN([C@@H](CCc1cscn1)C(=O)[*:2])[*:1]; NMedβ3hAla = C[C@H](CC(=O)[*:2])N(C)[*:1]; NMeGly(cPent) = CN[C@H](C(=O)O)C1CCCC1; NMehCha = CN[C@@H](CCC1CCCCC1)C(=O)O; NMeCha = CN[C@@H](CC1CCCCC1)C(=O)O; cisHyp = O=C(O)[C@@H]1C[C@H](O)CN1; ξPro(4,4-F2) = O=C(O)C1CC(F)(F)CN1; Hyp = O=C(O)[C@@H]1C[C@@H](O)CN1; NMeChg = CN[C@H](C(=O)O)C1CCCCC1; NMeI = CC[C@H](C)[C@H](NC)C(=O)O; N(CH2CH2)2CF2 = FC1(F)CCN(*)CC1; NMeD = CN[C@@H](CC(=O)O)C(=O)O; NMeL = CN[C@@H](CC(C)C)C(=O)O; Cba = N[C@@H](CC1CCC1)C(=O)O; NMeV = CN[C@H](C(=O)O)C(C)C; d(β3hA) = C[C@@H](N)CC(=O)O; Ac7c = NC1(C(=O)O)CCCCCC1; NMeA = CN[C@@H](C)C(=O)O; Piperidide = C1CCN(*)CC1; Pyrrolidide = C1CCN(*)C1; Ac5c = NC1(C(=O)O)CCCC1; Aze = O=C(O)[C@@H]1CCN1; Ac4c = NC1(C(=O)O)CCC1; ξAze = O=C(O)C1CCN1; ξP = O=C(O)C1CCCN1; Sar = CNCC(=O)O

The target of this experiment is GTPase KRas (G12D) and Son of Sevenless Homolog 1 (SOS) (Homo sapiens, UniProt P01116, G12D). In words: AlphaScreen Assay.
GTPase KRas (G12D) and Son of Sevenless Homolog 1 (SOS), sequence (P01116 whole entry G12D): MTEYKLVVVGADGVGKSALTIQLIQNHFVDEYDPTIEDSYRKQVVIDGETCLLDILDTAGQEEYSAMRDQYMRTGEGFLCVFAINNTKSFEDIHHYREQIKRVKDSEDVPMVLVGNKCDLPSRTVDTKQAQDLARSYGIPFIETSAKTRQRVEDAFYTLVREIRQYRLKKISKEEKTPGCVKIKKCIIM
GTPase KRas (G12D) and Son of Sevenless Homolog 1 (SOS), sequence (Q07889 whole entry, further chain): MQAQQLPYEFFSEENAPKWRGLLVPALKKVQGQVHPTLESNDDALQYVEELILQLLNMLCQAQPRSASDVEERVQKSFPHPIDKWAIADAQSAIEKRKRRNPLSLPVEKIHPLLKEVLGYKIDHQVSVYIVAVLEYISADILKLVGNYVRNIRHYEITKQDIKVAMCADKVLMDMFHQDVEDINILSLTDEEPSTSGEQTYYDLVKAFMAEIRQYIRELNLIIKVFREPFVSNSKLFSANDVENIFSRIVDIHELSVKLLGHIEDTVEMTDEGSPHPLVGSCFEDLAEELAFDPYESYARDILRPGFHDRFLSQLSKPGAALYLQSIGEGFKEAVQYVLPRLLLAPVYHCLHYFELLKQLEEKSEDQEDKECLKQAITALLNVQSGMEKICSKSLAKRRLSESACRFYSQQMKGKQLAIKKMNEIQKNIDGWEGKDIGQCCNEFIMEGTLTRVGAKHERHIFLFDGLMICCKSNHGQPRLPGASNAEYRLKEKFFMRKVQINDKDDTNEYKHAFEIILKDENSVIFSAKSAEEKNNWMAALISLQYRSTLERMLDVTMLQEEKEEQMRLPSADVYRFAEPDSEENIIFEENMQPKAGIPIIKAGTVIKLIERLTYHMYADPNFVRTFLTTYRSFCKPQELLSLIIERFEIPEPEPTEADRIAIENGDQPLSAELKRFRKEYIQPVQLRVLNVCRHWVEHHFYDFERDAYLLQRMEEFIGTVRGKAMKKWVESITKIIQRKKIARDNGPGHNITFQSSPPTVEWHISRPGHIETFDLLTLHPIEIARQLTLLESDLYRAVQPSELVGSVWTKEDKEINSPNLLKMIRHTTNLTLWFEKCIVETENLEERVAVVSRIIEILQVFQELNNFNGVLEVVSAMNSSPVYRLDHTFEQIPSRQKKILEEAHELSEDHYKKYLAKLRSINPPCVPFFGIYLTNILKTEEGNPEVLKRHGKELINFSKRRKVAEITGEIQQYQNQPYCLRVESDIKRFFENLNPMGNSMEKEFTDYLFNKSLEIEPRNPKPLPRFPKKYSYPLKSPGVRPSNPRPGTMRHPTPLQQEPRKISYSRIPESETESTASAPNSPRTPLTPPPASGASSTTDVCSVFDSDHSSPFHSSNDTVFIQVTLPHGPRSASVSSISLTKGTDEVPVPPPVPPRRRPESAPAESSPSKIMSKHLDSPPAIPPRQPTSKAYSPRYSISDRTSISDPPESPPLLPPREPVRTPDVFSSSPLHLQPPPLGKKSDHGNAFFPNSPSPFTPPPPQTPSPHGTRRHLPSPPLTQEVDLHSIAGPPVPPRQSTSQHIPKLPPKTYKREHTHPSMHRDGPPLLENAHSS
Procedure: Protein-protein interaction inhibition (PPI) between Kras and SOS1 was measured by energy transfer from nickel-conjugated donor beads to streptavidin-conjugated acceptor beads using biotin-tagged human Kras expressed in E. coli and loaded with GDP after purification and His-tagged human SOS1 enzyme. This measurement utilizes the phenomenon in which donor beads are irradiated with light at 680 nm, such that energy is transferred to acceptor beads through singlet oxygen and light at 520-620 nm is detected from the acceptor beads.
In turn, `CC[C@H](C)[C@@H]1NC(=O)[C@H](CC(C)C)N(C)C(=O)C[C@@H](C(=O)N2CCCC2)N(C)C(=O)[C@H](C2CCCC2)N(C)C(=O)C2(CCCC2)NC(=O)[C@H](CC(=O)N2CCC(F)(F)CC2)N(C)C(=O)[C@H](CCc2ccc(C(F)(F)F)c(Cl)c2)NC(=O)CN(C)C(=O)[C@H](CCC2CCCCC2)N(C)C(=O)C2CCN2C(=O)[C@H](C)N(C)C1=O` (some centres undefined) [US20240148821, Compound 26] ([NMeL]I[NMeA][ξAze][NMehCha][Sar][hPhe(3-Cl-4-CF3)][NMeD](N(CH2CH2)2CF2)[Ac5c][NMeGly(cPent)][NMeD]-Pyrrolidide; lactam N-11) gave an IC50 of 4.3 nM. This counts as single-digit nanomolar.
The value for `CC(C)C[C@H]1C(=O)N[C@@H](C2CC2)C(=O)N(C)CC(=O)N(C)CC(=O)N(C)[C@@H](CCC2CCCCC2)C(=O)N(C)CC(=O)N[C@@H](CCc2ccc(C(F)(F)F)c(Cl)c2)C(=O)N2CCCC2C(=O)NC2(CCCC2)C(=O)N(C)[C@@H](C(C)C)C(=O)N[C@H](C)CC(=O)N1C` (some centres undefined) [US20240148821, Compound 101] was 160 nM; that for `CC[C@H](C)[C@@H]1NC(=O)[C@H](CC(C)C)N(C)C(=O)C[C@@H](C)N(C)C(=O)[C@H](C2CCCC2)N(C)C(=O)C2(CCCC2)NC(=O)C2CC(F)(F)CN2C(=O)[C@H](CCc2ccc(C(F)(F)F)c(Cl)c2)NC(=O)CN(C)C(=O)[C@H](CCC2CCCCC2)N(C)C(=O)CN(C)C(=O)CN(C)C1=O` (some centres undefined) [US20240148821, Compound 107] (cyclo([Ac5c][NMeGly(cPent)][NMedβ3hAla][NMeL]I[Sar][Sar][NMehCha][Sar][hPhe(3-Cl-4-CF3)][ξPro(4,4-F2)])) was 4 nM; that for `CCCC[C@@H]1NC(=O)[C@H](Cc2cccc(I)c2)NC(=O)CN(CC)C(=O)[C@H](Cc2ccc(Cl)cc2)N(CC)C(=O)CN(CC)C(=O)CN(CC)C(=O)[C@H]([C@@H](C)CC)NC(=O)[C@H](CC(C)C)N(CC)C(=O)CC(C(=O)N2CCCCC2)N(CC)C(=O)[C@H](CC(C)C)NC(=O)[C@H](Cc2ccccc2OC(F)(F)F)N(CC)C1=O` (some centres undefined) [US20240148821, Compound 111] was 100 nM.
To `CC[C@H](C)[C@@H]1NC(=O)[C@H](CC(C)C)N(C)C(=O)C[C@@H](C)NC(=O)[C@H](CC(C)C)N(C)C(=O)C(C)(C)NC(=O)[C@H](CC(C)C)N(C)C(=O)[C@H](CCc2cc(F)c(C(F)(F)F)c(F)c2)NC(=O)CN(C)C(=O)[C@H](C(=O)CC2CCCCC2)N(C)C(=O)CN(C)C(=O)CN(C)C1=O` [US20240148821, Compound 119] belongs 39 nM; to `CC[C@H](C)[C@@H]1NC(=O)[C@H](CCC2CCC2)N(C)C(=O)C[C@@H](C)NC(=O)[C@H](C(C)C)N(C)C(=O)C2(CCCC2)NC(=O)C2CCCN2C(=O)[C@H](CCc2ccc(C(F)(F)F)c(Cl)c2)NC(=O)CN(C)C(=O)[C@H](CC2CCCCC2)N(C)C(=O)CN(C)C(=O)CN(C)C1=O` (some centres undefined) [US20240148821, Compound 230], 39 nM.
Take `C#CCC[C@H]1C(=O)N[C@@H]([C@@H](C)CC)C(=O)N(C)CC(=O)N(C)CC(=O)N(C)[C@@H](CCc2ccc(I)cc2)C(=O)N(C)CC(=O)N[C@@H](CCc2ccc(C(F)(F)F)c(Cl)c2)C(=O)N2CCCC2C(=O)NC2(CCCC2)C(=O)N(C)[C@@H](C2CCCCC2)C(=O)N[C@H](C)CC(=O)N1C` (some centres undefined) [US20240148821, Compound 300]: half-maximal inhibition (IC50) required 9.5 nM.
Compound `CC(C)C[C@H]1C(=O)N[C@@H](CC2CCC2)C(=O)N(C)CC(=O)N(C)CC(=O)N(C)[C@@H](CC2CCCCC2)C(=O)N(C)CC(=O)N[C@@H](CCc2ccc(C(F)(F)F)c(Cl)c2)C(=O)N2CCCC2C(=O)NC2(CCCCCC2)C(=O)N(C)[C@@H](C(C)C)C(=O)N(C)[C@H](C(=O)N2CCCCC2)CC(=O)N1C` (some centres undefined) [US20240148821, Compound 451] ([NMeL][Cba][Sar][Sar][NMeCha][Sar][hPhe(3-Cl-4-CF3)][ξP][Ac7c][NMeV][NMeD]-Piperidide; lactam N-11) had an IC50 of 10 nM. The IC50 values of the last two compounds are within 1.5-fold of each other.
Compound `CC[C@H](C)[C@@H]1NC(=O)[C@H](CC(C)C)N(C)C(=O)C[C@@H](C(=O)N2CCCCC2)N(C)C(=O)[C@H](C2CCCCC2)N(C)C(=O)C2(CCCC2)NC(=O)[C@H](CCc2cscn2)N(C)C(=O)[C@H](CCc2ccc(C(F)(F)F)c(Cl)c2)NC(=O)CN(C)C(=O)[C@H](CC2CCCCC2)N(C)C(=O)CN(C)C(=O)CN(C)C1=O` [US20240148821, Compound 500] ([NMeL]I[Sar][Sar][NMeCha][Sar][hPhe(3-Cl-4-CF3)][X101][Ac5c][NMeChg][NMeD]-Piperidide; lactam N-11) yielded an IC50 of 4.8 nM. Compared with the last compound, the IC50 is about 2.1-fold lower.
To `CC[C@H](C)[C@@H]1NC(=O)[C@H](CC(C)C)N(C)C(=O)C[C@@H](C(=O)N2CCCCC2)N(C)C(=O)[C@H](CC(C)C)N(C)C(=O)C2(CCCC2)NC(=O)[C@@H]2C[C@H](O)CN2C(=O)[C@H](CCc2ccc(C(F)(F)F)c(F)c2)NC(=O)CN(C)C(=O)[C@H](CC2CCCCC2)N(C)C(=O)CN(C)C(=O)CN(C)C1=O` [US20240148821, Compound 544] ([NMeL]I[Sar][Sar][NMeCha][Sar][hPhe(3-F,4-CF3)][cisHyp][Ac5c][NMeL][NMeD]-Piperidide; lactam N-11) belongs 2.2 nM.
`CC[C@H](C)[C@@H]1NC(=O)[C@H](CC(C)C)N(C)C(=O)C[C@@H](C(=O)N2CCN(C3COC3)CC2)NC(=O)[C@H]([C@@H](C)CC)N(C)C(=O)C2(CCCC2)NC(=O)C2CCCN2C(=O)[C@H](CCc2ccc(C(F)(F)F)c(Cl)c2)NC(=O)CN(C)C(=O)[C@H](C(=O)CC2CCCCC2)N(C)C(=O)CN(C)C(=O)CN(C)C1=O` (stereo partly drawn) [US20240148821, Compound 1191] ([NMeL]I[Sar][Sar][NMeGly(COCH2cHex)][Sar][hPhe(3-Cl-4-CF3)][ξP][Ac5c][NMeI]D-{Piperazinyl(4-(3-oxetanyl))}; lactam N-11) registered an IC50 of 6.7 nM.
Compound `CC[C@H](C)[C@@H]1NC(=O)[C@H](CC(C)C)N(C)C(=O)C[C@@H](C(=O)N2CCCC2)N(C)C(=O)[C@H](C2CCCCC2)N(C)C(=O)C2(CCC2)NC(=O)C2CC(F)(F)CN2C(=O)[C@H](CCc2cc(F)c(C(F)(F)F)c(F)c2)NC(=O)CN(C)C(=O)[C@H](C(=O)CC2CCCCC2)N(C)C(=O)CN(C)C(=O)CN(C)C1=O` (some centres undefined) [US20240148821, Compound 1192] ([NMeL]I[Sar][Sar][NMeGly(COCH2cHex)][Sar][hPhe(3,5-F2-4-CF3)][ξPro(4,4-F2)][Ac4c][NMeChg][NMeD]-Pyrrolidide; lactam N-11) showed an IC50 of 0.39 nM.
`CC[C@H](C)[C@@H]1NC(=O)[C@H](CC(C)C)N(C)C(=O)C[C@@H](C)NC(=O)[C@H](CC(C)C)N(C)C(=O)C2(CCCC2)NC(=O)[C@@H]2C[C@@H](O)CN2C(=O)[C@H](CCc2ccc(C(F)(F)F)c(F)c2)NC(=O)CN(C)C(=O)[C@H](CC2CCCCC2)N(C)C(=O)CN(C)C(=O)CN(C)C1=O` [US20240148821, Compound 1483] (cyclo([Ac5c][NMeL][d(β3hA)][NMeL]I[Sar][Sar][NMeCha][Sar][hPhe(3-F,4-CF3)][Hyp])): the IC50 is 34 nM.
With `CC[C@H](C)[C@@H]1NC(=O)[C@H](CC(C)C)N(C)C(=O)C[C@@H](C(=O)N2CCCCC2)N(C)C(=O)[C@H](C2CCCC2)N(C)C(=O)C2(CCCC2)NC(=O)[C@@H]2CCCN2C(=O)[C@H](CCc2ccc3ccn(C)c3c2)NC(=O)CN(C)C(=O)[C@H](CC2CCCCC2)N(C)C(=O)[C@@H]2CCN2C(=O)[C@H](C)N(C)C1=O` [US20240148821, Compound 2065] ([NMeL]I[NMeA][Aze][NMeCha][Sar][X55]P[Ac5c][NMeGly(cPent)][NMeD]-Piperidide; lactam N-11), the IC50 is 16 nM.

The term IC50 denotes the point on the concentration scale where inhibition reaches its midpoint.
